In PubChem BioAssay (NCI):
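Protocol summary: plate cells (96-well), add compound at 5 concentrations, incubate 48 h, interpolate endpoints linearly. TGI is the concentration that stops growth completely.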

Assays:
Assay in all cases: NCI-60 cell line screen, 48 h
LOX IMVI melanoma = system: LOX IMVI melanoma
786-0 renal = system: 786-0 renal
SF-539 CNS = system: SF-539 CNS
MALME-3M melanoma = system: MALME-3M melanoma
UACC-257 melanoma = system: UACC-257 melanoma
NCI-H522 lung = system: NCI-H522 lung
NCI-H23 lung = system: NCI-H23 lung
OVCAR-8 ovarian = system: OVCAR-8 ovarian
HOP-62 NSCLC = system: HOP-62 NSCLC
A549 NSCLC = system: A549 NSCLC
HCT-15 colon = system: HCT-15 colon
HT29 colon = system: HT29 colon
HOP-92 NSCLC = system: HOP-92 NSCLC
SF-295 CNS = system: SF-295 CNS
SK-OV-3 ovarian = system: SK-OV-3 ovarian
DLD-1 colon = system: DLD-1 colon
SK-MEL-5 melanoma = system: SK-MEL-5 melanoma
TK-10 renal = system: TK-10 renal
KM20L2 colon = system: KM20L2 colon
SN12C renal = system: SN12C renal
A498 renal = system: A498 renal
CAKI-1 renal = system: CAKI-1 renal
OVCAR-5 ovarian = system: OVCAR-5 ovarian
OVCAR-3 ovarian = system: OVCAR-3 ovarian
M19-MEL melanoma = system: M19-MEL melanoma
UACC-62 melanoma = system: UACC-62 melanoma
MOLT-4 leukemia = system: MOLT-4 leukemia
RPMI-8226 leukemia = system: RPMI-8226 leukemia
SNB-78 CNS = system: SNB-78 CNS
KM12 colon = system: KM12 colon
NCI-H460 lung = system: NCI-H460 lung
SNB-19 CNS = system: SNB-19 CNS
OVCAR-4 ovarian = system: OVCAR-4 ovarian
M14 melanoma = system: M14 melanoma
COLO 205 colon = system: COLO 205 colon
IGROV1 ovarian = system: IGROV1 ovarian
SK-MEL-2 melanoma = system: SK-MEL-2 melanoma
LXFL 529 NSCLC = system: LXFL 529 NSCLC
SR leukemia = system: SR leukemia
CCRF-CEM leukemia = system: CCRF-CEM leukemia
SK-MEL-28 melanoma = system: SK-MEL-28 melanoma
UO-31 renal = system: UO-31 renal
ACHN renal = system: ACHN renal
SW-620 colon = system: SW-620 colon
K-562 leukemia = system: K-562 leukemia
NCI-H226 lung = system: NCI-H226 lung
U251 CNS = system: U251 CNS
DMS 114 small cell lung = system: DMS 114 small cell lung
SF-268 CNS = system: SF-268 CNS
HOP-18 NSCLC = system: HOP-18 NSCLC
HL-60(TB) leukemia = system: HL-60(TB) leukemia
HCT-116 colon = system: HCT-116 colon
DMS 273 small cell lung = system: DMS 273 small cell lung
HCC-2998 colon = system: HCC-2998 colon

## CCN(CC)CCNc1ccc2ncn3c4ccccc4c(=O)c1c23
LOX IMVI melanoma
  TGI: 3.73 µM
786-0 renal
  TGI: 15.4 µM
SF-539 CNS
  TGI: 18 µM
MALME-3M melanoma
  TGI: 15.1 µM
UACC-257 melanoma
  TGI: 15.1 µM
NCI-H522 lung
  TGI: 12.3 µM
NCI-H23 lung
  TGI: 19.8 µM
OVCAR-8 ovarian
  TGI: 13.3 µM
HOP-62 NSCLC
  TGI: 21.6 µM
A549 NSCLC
  TGI: 10.2 µM
HCT-15 colon
  TGI: 16 µM
HT29 colon
  TGI: 11 µM
HOP-92 NSCLC
  TGI: 10.4 µM
SF-295 CNS
  TGI: 14.5 µM
SK-OV-3 ovarian
  TGI: 14.3 µM
DLD-1 colon
  TGI: 18.9 µM
SK-MEL-5 melanoma
  TGI: 13.3 µM
TK-10 renal
  TGI: 79.9 µM
KM20L2 colon
  TGI: 17.9 µM
SN12C renal
  TGI: > 100 µM
A498 renal
  TGI: 20.6 µM
CAKI-1 renal
  TGI: 6.73 µM
OVCAR-5 ovarian
  TGI: 34.1 µM
OVCAR-3 ovarian
  TGI: 49.7 µM
M19-MEL melanoma
  TGI: 13.9 µM
UACC-62 melanoma
  TGI: 14.6 µM
MOLT-4 leukemia
  TGI: > 100 µM
RPMI-8226 leukemia
  TGI: > 100 µM
SNB-78 CNS
  TGI: 18.9 µM
KM12 colon
  TGI: 17.6 µM
NCI-H460 lung
  TGI: 8.98 µM
SNB-19 CNS
  TGI: 32 µM
OVCAR-4 ovarian
  TGI: 9.53 µM
M14 melanoma
  TGI: 16.8 µM
COLO 205 colon
  TGI: 9.78 µM
IGROV1 ovarian
  TGI: 15.7 µM
SK-MEL-2 melanoma
  TGI: 16.3 µM
LXFL 529 NSCLC
  TGI: 18.3 µM
SR leukemia
  TGI: > 100 µM
CCRF-CEM leukemia
  TGI: > 100 µM
SK-MEL-28 melanoma
  TGI: 16.4 µM
UO-31 renal
  TGI: 12.2 µM
ACHN renal
  TGI: 12.2 µM
SW-620 colon
  TGI: 16 µM
K-562 leukemia
  TGI: > 100 µM
NCI-H226 lung
  TGI: 7.67 µM
U251 CNS
  TGI: 17.5 µM
DMS 114 small cell lung
  TGI: 17.5 µM
SF-268 CNS
  TGI: 18.7 µM
HOP-18 NSCLC
  TGI: 37.4 µM
HL-60(TB) leukemia
  TGI: > 100 µM
HCT-116 colon
  TGI: 12.8 µM

## O=C(O)CSc1ccc2[nH]c3ccccc3c(=O)c2c1
LOX IMVI melanoma
  TGI: > 100 µM
786-0 renal
  TGI: > 100 µM
MALME-3M melanoma
  TGI: > 100 µM
UACC-257 melanoma
  TGI: > 100 µM
NCI-H23 lung
  TGI: > 100 µM
OVCAR-8 ovarian
  TGI: > 100 µM
HOP-62 NSCLC
  TGI: > 100 µM
A549 NSCLC
  TGI: > 100 µM
HCT-15 colon
  TGI: > 100 µM
HT29 colon
  TGI: > 100 µM
HOP-92 NSCLC
  TGI: > 100 µM
SF-295 CNS
  TGI: > 100 µM
SK-OV-3 ovarian
  TGI: > 100 µM
DLD-1 colon
  TGI: > 100 µM
SK-MEL-5 melanoma
  TGI: > 100 µM
TK-10 renal
  TGI: > 100 µM
KM20L2 colon
  TGI: > 100 µM
SN12C renal
  TGI: > 100 µM
A498 renal
  TGI: > 100 µM
CAKI-1 renal
  TGI: > 100 µM
DMS 273 small cell lung
  TGI: > 100 µM
OVCAR-5 ovarian
  TGI: > 100 µM
OVCAR-3 ovarian
  TGI: > 100 µM
M19-MEL melanoma
  TGI: > 100 µM
UACC-62 melanoma
  TGI: > 100 µM
MOLT-4 leukemia
  TGI: > 100 µM
RPMI-8226 leukemia
  TGI: > 100 µM
NCI-H460 lung
  TGI: > 100 µM
SNB-19 CNS
  TGI: > 100 µM
OVCAR-4 ovarian
  TGI: > 100 µM
M14 melanoma
  TGI: > 100 µM
COLO 205 colon
  TGI: > 100 µM
IGROV1 ovarian
  TGI: > 100 µM
LXFL 529 NSCLC
  TGI: > 100 µM
SR leukemia
  TGI: > 100 µM
CCRF-CEM leukemia
  TGI: > 100 µM
SK-MEL-28 melanoma
  TGI: > 100 µM
UO-31 renal
  TGI: > 100 µM
ACHN renal
  TGI: > 100 µM
SW-620 colon
  TGI: > 100 µM
K-562 leukemia
  TGI: > 100 µM
NCI-H226 lung
  TGI: > 100 µM
U251 CNS
  TGI: > 100 µM
DMS 114 small cell lung
  TGI: > 100 µM
HCC-2998 colon
  TGI: > 100 µM
SF-268 CNS
  TGI: > 100 µM
HOP-18 NSCLC
  TGI: > 100 µM
HL-60(TB) leukemia
  TGI: > 100 µM
HCT-116 colon
  TGI: > 100 µM
